# Data published in patent US20250186450A1, “COMBINATION THERAPY COMPRISING DGK INHIBITORS and PD-1/PD-L1 INHIBITORS” (Incyte Corporation, priority 2023, published 2025).
# “Also recorded” adds a separate entry of the source.
# Tests used:
# [1] = test system: CT26 syngeneic tumor model; assay: CT26 syngeneic tumor model, DGK inhibitor plus anti-PD-1 (RMP1-14); type: in vivo, Balb/C mice; settings: for tumor growth delay vs control vehicle group: Compound 1 alone
# Experimental: The in vivo effect of combining Compound 1 plus anti-PD-1 (RMP1-14, Bio X Cell) was assessed in the CT26 (CRL-2638, ATCC, Manassas, VA) syngeneic tumor model (see FIG. 1) in 6 to 8 weeks old Balb/C mice (Jackson laboratories). Compound 1 was suspended in 5% N,N-dimethylacetamide (DMAC)+50 mM Citrate buffer in 0.5% methyl cellulose for oral administration and RMP1-14 was suspended in saline for intraperitoneal administration. Briefly, the left flank of the mice was shaved the day prior to subcutaneous inoculation with 1×10^6 CT26 cells suspended in PBS. On day 7, tumor dimensions were measured by Vernier calipers, and volume estimated by the formula Volume=[L (long dimension)×W^2 (short dimension)]/2. Mice were randomized into 6 groups of 10 mice of approximate mean volume (˜150 mm^3). Tumors were measured 3 times per week for the duration of the study. Starting day 7, mice were dosed with (i) vehicle; (ii) 250 μg/mouse of RMP1-14; (iii) 10 mg/kg of Compound 1; (iv) 3 mg/kg of Compound 1; (v) 10 mg/kg of Compound 1 and 250 μg/mouse of RMP1-14; or (vi) 3 mg/kg of Compound 1 and 250 μg/mouse of RMP1-14. Compound 1 was administered orally once daily (QD) for 14 days, while RMP1-14 was dosed every 5 days (for a total of 3 doses).
# In a separate experiment, mice were randomized on day 7 into 10 groups of 10 mice of approximate mean volume (˜120 mm^3). Tumors were measured 3 times a week for the duration of the efficacy study (day 22). Starting day 7, mice were dosed with (i) vehicle; (ii) 250 μg/mouse of RMP1-14; (iii) 10 mg/kg of Compound 1 QD; (iv) 10 mg/kg of Compound 1 Q2D; (v) 3 mg/kg of Compound 1 QD; (vi) 3 mg/kg of Compound 1 […]; (vii) 10 mg/kg of Compound 1 QD and 250 μg/mouse of RMP1-14; (viii) 10 mg/kg of Compound 1 Q2D and 250 μg/mouse of RMP1-14; (ix) 3 mg/kg of Compound 1 QD and 250 μg/mouse of RMP1-14; or (x) 3 mg/kg of Compound 1 Q2D and 250 μg/mouse of RMP1-14. Compound 1 was administered orally either daily (QD) or every other day (Q2D) for 10 days, while RMP1-14 was dosed every 5 days (for a total of 2 doses).
# The in vivo effect of combining Compound 2 plus anti-PD-1 (RMP1-14, Bio X Cell) was assessed in the CT26 (CRL-2638, ATCC, Manassas, VA) syngeneic tumor model (see FIG. 6A-6B) in 6 to 8 weeks old Balb/C mice (Jackson laboratories). Compound 2 was suspended in 5% N,N-dimethylacetamide (DMAC)+50 mM Citrate buffer in 0.5% methyl cellulose for oral administration and RMP1-14 was suspended in saline for intraperitoneal administration. Briefly, the left flank of the mice was shaved the day prior to subcutaneous inoculation with 1×10^6 CT26 cells suspended in PBS. On day 7, tumor dimensions were measured by Vernier calipers, and volume estimated by the formula Volume=[L (long dimension)×W^2 (short dimension)]/2. Mice were randomized into 6 groups of 10 mice of approximate mean volume (˜130 mm^3). Tumors were measured 3 times per week for the duration of the study. Starting day 7, mice were dosed with (i) vehicle; (ii) 250 μg/mouse of RMP1-14 (Anti-PD-1); (iii) 1.5 mg/kg of Compound 2 QD; (iv) 1.5 mg/kg of Compound 2 QD and 250 μg/mouse of RMP1-14; (v) 1.5 mg/kg of Compound 2 Q2D; (vi) 1.5 mg/kg of Compound 2 Q2D and 250 μg/mouse of RMP1-14; (vii) 1.5 mg/kg of Compound 2 Q3D; or (viii) 1.5 mg/kg of Compound 2 Q3D and 250 μg/mouse of RMP1-14.
# [2] = test system: CT26 syngeneic tumors overexpressing human PD-L1 (Clone299); assay: Human PD-1/human PD-L1 dual knock-in model; type: in vivo, human PD-1/human PD-L1 dual Knock-In mice
# Experimental: The in vivo effect of combining Compound 1 plus (R)-1-((7-cyano-2-(3′-(2-(difluoromethyl)-7-((3-hydroxypyrrolidin-1-yl)methyl)pyrido[3,2-d]pyrimidin-4-ylamino)-2,2′-dimethylbiphenyl-3-yl)benzo[d]oxazol-5-yl)methyl)piperidine-4-carboxylic acid (i.e., Compound A) was assessed in 8 to 10 weeks old human PD-1/human PD-L1 dual Knock-In mice (GemPharmatech, Shanghai, China) using CT26 syngeneic tumors overexpressing human PD-L1 (Clone299, Synthego, California). Both Compound 1 and Compound A were suspended in 5% N,N-dimethylacetamide (DMAC)+50 mM Citrate buffer in 0.5% methyl cellulose for oral administration. […] On day 17, tumor dimensions were measured by Vernier calipers, and volume estimated by the formula Volume=[L (long dimension)×W^2 (short dimension)]/2. […] Tumors were measured 3 times per week for the duration of the study. […]
# The in vivo effect of Compound 2 plus Anti-PD-L1 (atezolizumab) was assessed in 8 to 10 weeks old human PD-1/human PD-L1 dual Knock-In mice (GemPharmatech, Shanghai, China) using CT26 syngeneic tumors overexpressing human PD-L1 (Clone299, Synthego, California). […] On day 12, tumor dimensions were measured by Vernier calipers, and volume estimated by the formula Volume=[L (long dimension)×W^2 (short dimension)]/2. […] Tumors were measured 3 times per week for the duration of the study. […]
SMILES,"TGI, combined with anti-PD-1 mAb ([1]; 1.5 mg/kg Compound 2 Q2D and 250 μg/mouse RMP1-14, FIGS. 6A-6B)","TGI, combination groups vs respective single-arm control group ([1]; 1.5 mg/kg Compound 2 QD, Q2D or Q3D and 250 μg/mouse RMP1-14)","TGI vs vehicle control group ([1]; Compound 2 alone, 1.5 mg/kg QD, Q2D or Q3D, FIG. 6B)","TGI, combined with Anti-PD-L1 mAb, vs Anti-PD-L1 mAb control group ([2]; 1.5 mg/kg Compound 2 Q2D and Anti-PD-L1 (atezolizumab), FIG. 8)","combination effect on tumor growth delay (Bliss Independence analysis) ([1]; 10 mg/kg or 3 mg/kg Compound 1 QD for 14 days with 250 μg RMP1-14 every 5 days, vs respective controls, FIG. 1)","combination effect on tumor growth delay (Bliss Independence analysis) ([1]; 10 mg/kg or 3 mg/kg Compound 1 QD or Q2D for 10 days with 250 μg RMP1-14, vs respective controls, FIG. 2)","tumor growth delay vs control vehicle group ([1]; 10 mg/kg orally QD for 14 days, FIG. 1)","tumor growth delay vs control vehicle group ([1]; 10 and 3 mg/kg QD for 10 days, separate experiment, FIG. 2)","tumor volume vs RMP1-14 alone (Kruskal-Wallis Multiple Comparison Test) ([1]; all groups tested against group (ii) 250 μg/mouse RMP1-14, FIG. 2)","combination effect on tumor growth delay (Bliss Independence analysis) ([2]; 10 mg/kg Compound 1 QD with 25 mg/kg Compound A BID for 15 days, vs respective controls, FIG. 4)"
"Cc1nc2c(N3C[C@@H](C)N(C(c4ccc(C(F)(F)F)cc4)C4CC(F)(F)C4)C[C@@H]3C)nc3nncn3c2n1C[C@@H]1CCCO1 (single isomer, unassigned) [Example 2]",significant TGI,statistically significant,None of the single treatment arm groups dosed with 1.5 mg/kg Compound 2 provided statistically significant TGI,statistically significant; also recorded: significant TGI,,,,,,
"C[C@@H]1CN(c2nc3nncn3c3c2nnn3C[C@H]2CCCO2)[C@@H](C)CN1C(c1ccc(F)cc1)c1ccc(F)cc1 [Example 1, 4-((2S,5R)-4-(Bis(4-fluorophenyl)methyl)-2,5-dimethylpiperazin-1-yl)-1-(((R)-tetrahydrofuran-2-yl)methyl)-1H-[1,2,3]triazolo[4,5-e][1,2,4]triazolo[4,3-a]pyrimidine]",,,,,synergistic effect in tumor growth delay,synergistic effect in tumor growth delay,therapeutic effect in delaying tumor growth,therapeutic effect in delaying tumor growth,statistical significance,synergistic effect in tumor growth delay
